Measured values taken from patent US11198898B2, “Chemical tools for imaging phospholipase D activity” (CORNELL UNIVERSITY, priority 2017, dated 2021).
Like-named read-outs stand apart in the source and are kept apart here.

Assays:
[1] = system: PLD activity in HeLa cells; assay: Imaging of PLD-mediated PA synthesis in fixed HeLa cells with alkynols, CuAAC with Az488, confocal microscopy; assay type: cell-based, human
Experimental: To image sites of PLD-mediated PA synthesis, HeLa cells were treated with each of the three longer-chain alkynols and again stimulated PLD activity acutely with PMA, in the absence or presence of FIPI. Rather than proceeding with a whole-cell lipid extraction, cells were fixed with paraformaldehyde and subjected to CuAAC labeling with Az488. […] The observed labeling pattern was complex, likely the result of PA synthesis on membranes of multiple intracellular compartments. To determine the subcellular locations of the hexynol-based labeling, a series of colocalization studies were performed with markers of various organelle membranes. In these studies, HeLa cells were transfected with plasmids encoding fluorescent protein fusions to constituents of several organellar membranes and then the PA labeling protocol was performed using 1 mM hexynol and, where appropriate, either Az488 or an azide-containing tetramethylrhodamine derivative.

[2] = system: commercially available PLD; assay: In vitro transphosphatidylation of DOPC with alkynols by a commercially available PLD, CuAAC with Az488, HPLC-fluorescence/ESI-MS; assay type: biochemical; settings: incubated with DOPC and PLD
[3] = system: mammalian PLDs in HeLa cells; assay: Alkynol labelling of PMA-stimulated HeLa cells, lipid extraction, CuAAC with Az488, HPLC-fluorescence; assay type: cell-based, human; settings: for extent of incorporation into phosphatidyl alcohols compared to the shorter alkynols: at the same concentration
Experimental: Further experiments evaluated whether mammalian PLDs would accept alkynols as substrates within live cells. HeLa cells were treated with each of the five alkynols for 20 minutes, stimulated acute PA biosynthesis pharmacologically using phorbol 12-myristate 13-acetate (PMA) (McDermott M, et al., Biochem. Cell Biol. 2004 February; 82(1):225-53), and then isolated total cellular lipid extracts. Following CuAAC labeling with Az488, the samples were analyzed by HPLC coupled to fluorescence detection. The HPLC-fluorescence results for the five alkynols (denoted as 1, 2, 3, 4, or 5 in panels 1-5, respectively) are shown in FIG. 2B.
While all five alkynols were accepted as transphosphatidylation substrates in HeLa cells, they were processed by cellular PLDs with different efficiencies. […] The molecular identities of the fluorescently labeled phosphatidyl alcohols (PA analogs) were verified by analyzing labeled extracts from cells treated with each of the three longer-chain alkynols by HPLC followed by ESI-MS.
This robust labeling with pentynol, hexynol, and heptynol led to further experiments to investigate whether the dose of alkynol could be lowered. The initial concentration of 12.9 mM alkynol corresponded to the low end of the concentration range of 0.1-0.5 mol % that is typically used in the traditional TLC-based butanol transphosphatidylation assay. Such high concentrations of alcohol, however, have several negative consequences. First, they are sufficient to compete with water in the PLD active site and reduce the ability of PLDs to synthesize PA, thus impacting PA-dependent signaling.

[4] = system: endogenous PLD activity in HeLa cells; assay: Azidoalcohol labelling of PMA-stimulated HeLa cells, lipid extraction, SPAAC with BODIPY-cyclooctyne 1, HPLC; assay type: cell-based, human; settings: for decrease of the signal: isoform-selective inhibitor during labeling
[5] = system: basal, endogenous PLD activity in HeLa cells; assay: Basal PLD activity: HeLa cells with 1 mM AzProp, lipid extraction, SPAAC with (1), HPLC; assay type: cell-based, human
Experimental: Up to this point, the efforts focused on monitoring acute PLD activation in response to a stimulus, by using PMA as a model pharmacological agent to mimic activation of several signal transduction pathways. In the absence of a stimulus, however, it is known that PLD enzymes display a much lower but appreciable level of basal activity.
To accomplish this, HeLa cells were treated with 1 mM AzProp, followed by lipid extraction, SPAAC labeling with (1), and HPLC analysis.

[6] = system: basal PLD activity in HeLa cells; assay: Basal PLD activity in live cells: AzProp/SPAAC labelling, confocal microscopy with isoform-selective inhibitors; assay type: cell-based, human; settings: for effect of inhibitor on ER- and Golgi-derived fluorescence: HeLa cells; for effect of inhibitor on the high-fluorescence cell population: confocal microscopy
Experimental: To image sites of basal PLD activity within live cells, cells were treated with 1 mM AzProp for 2 hours and rinsed. The SPAAC reaction was then performed using (1).
Further experiments then examined the distribution of basal PLD activity at both the cellular and subcellular levels. […] Thus, at the cellular level, the high fluorescence of a minority of cells can be attributed to PLD1 activity, and the moderate fluorescence in the majority of cells to PLD2.
The subcellular localization of AzProp-marked basal PLD activity appeared to be similar to that of AzProp-marked, PMA-stimulated PLD enzymes, that is localized to a mixture of ER, Golgi, endosomal, and lysosomal membranes. Isoform-selective inhibitors were used to probe the relative contributions of each PLD isoform to PA biosynthetic activity on different organelle membranes. […] Thus, it can be concluded that, in HeLa cells, the bulk of ER-localized, basal PLD activity is due to PLD1, whereas PLD activity on Golgi membranes is due to a roughly equal mix of PLD1 and PLD2.

[7] = system: PLD activity in live cells; assay type: cell-based
[8] = HeLa cells, PMA, SPAAC with BODIPY-cyclooctyne 1
[9] = PMA-stimulated HeLa cells, HPLC

## C#CCCCCO [hexynol, 5-hexyn-1-ol]
[1]; confocal microscopy
  alkynol concentration permitting detection of alkynol-dependent and FIPI-sensitive fluorescence: ≥ 100 µM
  signal-to-background ratio among the three longer-chain alkynols: highest signal-to-background ratio
[2]
  formation of the expected fluorescent phosphatidyl alcohol product (PLD substrate in vitro): confirmed the identity of the expected fluorescent phosphatidyl alcohol products
[3]; HPLC
  alkynol concentration at which PA production could be detected in cells: ≥ 100 µM
[3]
  extent of incorporation into phosphatidyl alcohols compared to the shorter alkynols: incorporated to a greater extent into phosphatidyl alcohols

## [N-]=[N+]=NCCCCO [AzBut, 4-azido-1-butanol]
[4]; [8]
  fluorescent lipid species by HPLC: presence of fluorescent lipid species
[4]; [9]
  efficacy as PLD substrate: performed roughly equivalently

## C#CCCCCCO [heptynol, 6-heptyn-1-ol]
[2]
  formation of the expected fluorescent phosphatidyl alcohol product (PLD substrate in vitro): confirmed the identity of the expected fluorescent phosphatidyl alcohol products
[3]
  extent of incorporation into phosphatidyl alcohols compared to the shorter alkynols: incorporated to a greater extent into phosphatidyl alcohols

## C#CCCO [3-butyn-1-ol]
[2]
  formation of the expected fluorescent phosphatidyl alcohol product (PLD substrate in vitro): confirmed the identity of the expected fluorescent phosphatidyl alcohol products

## C#CCCCO [pentynol, 4-pentyn-1-ol]
[2]
  formation of the expected fluorescent phosphatidyl alcohol product (PLD substrate in vitro): confirmed the identity of the expected fluorescent phosphatidyl alcohol products
[3]
  extent of incorporation into phosphatidyl alcohols compared to the shorter alkynols: incorporated to a greater extent into phosphatidyl alcohols

## C[C@@H](CN1CCC(n2c(=O)[nH]c3cc(Br)ccc32)CC1)NC(=O)[C@@H]1C[C@H]1c1ccccc1 [VU0359595]
[4]; PMA-stimulated HeLa cells
  decrease of the signal: approximately 75%
[5]
  share of the unstimulated PLD activity attributed to the inhibited isoform: roughly half
[6]
  effect of inhibitor on ER- and Golgi-derived fluorescence: selective disappearance of most of the ER-derived fluorescence but only a portion of the Golgi-derived fluorescence
  effect of inhibitor on the high-fluorescence cell population: disappearance of high-fluorescence cells

## O=C(NCCN1CCC2(CC1)C(=O)NCN2c1cccc(F)c1)c1ccc2ccccc2c1 [VU0364739]
[4]; PMA-stimulated HeLa cells
  decrease of the signal: ~25%
[5]
  share of the unstimulated PLD activity attributed to the inhibited isoform: roughly half
[6]
  effect of inhibitor on ER- and Golgi-derived fluorescence: decrease in Golgi-derived fluorescence but had minimal effect on ER-derived fluorescence
  effect of inhibitor on the high-fluorescence cell population: did not eliminate the high-fluorescence population

## O=C(NCCN1CCC(n2c(=O)[nH]c3ccccc32)CC1)c1cc2cc(F)ccc2[nH]1 [FIPI, 5-fluoro-2-indolyl deschlorohalopemide, reference compound]
[4]; treatment of cells during the labeling procedure, PMA-stimulated
  effect of inhibitor on fluorescent lipid species: complete loss of the fluorescent lipid species
[5]; unstimulated HeLa cells
  effect of inhibitor on basal phosphatidyl alcohol production: prevented phosphatidyl alcohol production
[1]; PMA, CuAAC with Az488
  labeling in cells treated with alkynol and PLD inhibitor (negative control): minimal background labeling

## [N-]=[N+]=NCCO [AzEt, 2-azidoethanol]
[4]
  efficacy as PLD substrate: poorer PLD substrate
  fluorescent lipid species by HPLC: presence of fluorescent lipid species
[7]
  signal-to-background among the azidoalcohols: highest

## [N-]=[N+]=NCCCCCO [AzPent, 5-azido-1-pentanol]
[4]; [8]
  fluorescent lipid species by HPLC: presence of fluorescent lipid species
[4]; [9]
  efficacy as PLD substrate: performed roughly equivalently

## C#CCO [propynol]
[2]
  formation of the expected fluorescent phosphatidyl alcohol product (PLD substrate in vitro): confirmed the identity of the expected fluorescent phosphatidyl alcohol products
